Assay results from paper PMC12891993, “Bio-orthogonal chemistry-based strategy to Turn-OFF CRISPR-Cas9 activity in solution and live cells” (NAR Molecular Medicine, 2026).
Residues, ends and D or L forms follow the SMILES beside them. *: point of attachment. X1 = O=C(COC1CC/C=C/CCC1)*

What was measured:
Assay type in all cases: cell-based
HEK293 cells = experiment: Assessment of cell permeability of TCO-modified CRISPR suppressors with OG-Tz fluorescent probe; conditions: suppressor 30 μM 3 h, then OG-Tz 50 μM 2 h; for cellular fluorescence in the Oregon Green channel: confocal microscopy; for cell permeability: microscopy, confirmed by flow cytometry
Description: The studies were carried out using the previously reported OG-Tz fluorescent probe. The chemical structure of OG-Tz is shown in Supplementary Fig. S7. OG-Tz was synthesized using the procedure reported by Devaraj and co-workers. The HEK293 cells were cultured in DMEM, containing 10% FBS and 1X Penicillin/Streptomycin, at 37°C, 5% CO2, and 95% humidity. The cells were seeded at a concentration of 1 × 10^5 cells per well in a six-well plate 24 h prior to the experiment. The cells were treated with the TCO-modified CRISPR suppressors (30 μM) for 3 h. Then, the media was replaced, and the cells were treated with OG-Tz (50 μM) for 2h. Afterwards, the cells were treated with trypsin for 5 min, collected by centrifugation at 1000 RPM, and suspended in PBS (1 mL). GFP expression was analyzed by flow cytometry. Data from 10^6 cells were acquired using a FACS Aria III cell sorter equipped with a 488 nm/blue coherent sapphire solid-state laser, 20 mW (BD Biosciences, San Jose, CA, USA). Data analyses were carried out using FlowJo software (Ashland, OR, USA), according to the manufacturer’s instructions. Parameters, such as MFI and the percentages of specific populations, were quantified by histogram analysis.
HEK293 cells were grown to ∼70% confluence in 35 mm MatTek glass bottom dishes in DMEM supplemented with 10% […], penicillin, and streptomycin. The cells were treated with AAA-PNA-TCO, TTT-PNA-TCO, TCO-CPP-RRWQW, or TCO-CPP-RLRWR (30 μM) for 3 h. Afterwards, the cells were treated with OG-Tz (50 μM) for 2 h. Hoechst 33 258 dye was used for nuclear staining. Cellular fluorescence was analyzed using confocal microscopy. Microscopy experiments were carried out using a Zeiss LSM980 confocal microscope.

[1] = test system: GFP gene in GFP-expressing HEK293 cells; experiment: CRISPR-Cas9 experiments in GFP-expressing HEK293 cells, flow cytometry; conditions: then suppressor 10 μM 24 h, 48 h growth, duplicate; for inactivation of sgRNA3-(U4Tz1) inside the cells (MFI of GFP): Cas9 mRNA + sgRNA3-(U4Tz1) 48 h; for inactivation of sgRNA3-(U4Tz2) inside the cells (MFI of GFP): Cas9 mRNA + sgRNA3-(U4Tz2) 48 h
Description: CRISPR-Cas9 experiments were carried out following the procedure reported by Yin et al. The GFP-expressing HEK293 cells were purchased from GenTarget (cat.# SC001) and cultured in DMEM, containing 10% FBS and 1X Penicillin/Streptomycin, at 37°C, 5% CO2, and 95% humidity. The cells were seeded at a concentration of 1 × 10^5 cells per well in a six-well plate 24 h prior to the experiment. The cells were transfected with Cas9 mRNA (500 ng, Thermo Fisher Scientific), GFP-targeting sgRNAs (30 nM) using lipofectamine (1.5 μL) (Invitrogen™ LMRNA003) for 72 h in Opti-MEM reduced serum media. After 72 h, Opti-MEM was replaced with fresh DMEM, and the cells were grown for an additional 48 h. The cells were treated with trypsin for 5 min, collected by centrifugation at 1000 RPM, and suspended in PBS (1 mL). GFP expression was analyzed by flow cytometry. Data from 10^6 cells were acquired using a FACS Aria III cell sorter equipped with a 488 nm/blue coherent sapphire solid-state laser, 20 mW (BD Biosciences, San Jose, CA, USA). Data analyses were carried out using FlowJo software (Ashland, OR, USA), according to the manufacturer’s instructions. Parameters, such as MFI and the percentages of specific populations, were quantified by histogram analysis.
Ability of TCO-modified CRISPR suppressors to control nuclease activity was examined as follows: GFP-expressing HEK239 cells were co-transfected with Cas9 mRNA (500 ng, Thermo Fisher Scientific), GFP-targeting sgRNAs (30 nM) using lipofectamine (1.5 μL) (Invitrogen™ LMRNA003) for 48 h. Then, AAA-PNA-TCO, TTT-PNA-TCO, TCO-CPP-RRWQW, and TCO-CPP-RLRWR (10 μM) were added to the media. After 24 h of treatment with the TCO-modified CRISPR suppressors, the media were replaced with fresh DMEM, and the cells were allowed to grow for an additional 48 h. The cells were treated with trypsin for 5 min, collected by centrifugation at 1000 RPM, and suspended in PBS (1 mL). GFP expression was analyzed by flow cytometry. Data from 10^6 cells were acquired using a FACS Aria III cell sorter equipped with a 488 nm/blue coherent sapphire solid-state laser, 20 mW (BD Biosciences, San Jose, CA, USA). Data analyses were carried out using FlowJo software (Ashland, OR, USA), according to the manufacturer’s instructions. Parameters, such as MFI and the percentages of specific populations, were quantified by histogram analysis.

VEGFA in HEK293T cells = experiment: Western blot analysis of CRISPR-Cas9 experiments targeting VEGFA; conditions: Cas9 mRNA + sgRNA4-(U4Tz1) or sgRNA4-(U4Tz2), suppressor 10 μM added after 48 h of transfection
Description: Total protein lysate was harvested in RIPA buffer, and proteins separated by 10% SDS-PAGE were transferred to a PVDF membrane by using High MW protocol on Biorad Turbo wet transfer. Following transfer, membranes were blocked in 5% milk in PBST for 1 h at room temperature, washed three times in PBS with 0.1% (w/v) Tween 20 (PBS/T) for 10 min each and placed in primary antibody overnight at 4 °C. Primary antibody was rabbit VEGFA polyclonal antibody (1:2000 dilution, Cat.# 19003–1-AP, Proteintech) and α-tubulin monoclonal antibody (1:20 000 dilution, Cat.# 666031–1-Ig, Proteintech) in 5% BSA in PBS/T. Following overnight incubation, membranes were washed three times in PBS/T for 10 min each. Then membranes were incubated in a 1:10 000 dilution of goat anti-rabbit secondary (Jackson), goat-anti-mouse secondary in 5% milk, and PBS/T. Membranes were washed a final 3 times in PBS/T for 10 min each prior to being imaged on the BioRad ChemiDoc by using Thermo Scientific SuperSignal West Pico PLUS Chemiluminescent Substrate (BioRad, Cat.# 34 577).
To assess the new constructs, HEK239T cells were co-transfected with the unmodified sgRNA4, sgRNA4-(U4Tz1), or sgRNA4-(U4Tz2) and commercially available mRNA that encodes the Cas9 gene for 72 h. […] VEGFA expression was once again analyzed by Western blot.

Compound | cellular fluorescence in the Oregon Green channel (HEK293 cells) | cell permeability (HEK293 cells) | inactivation of sgRNA3-(U4Tz1) inside the cells (MFI of GFP) [1] | inactivation of sgRNA3-(U4Tz2) inside the cells (MFI of GFP) [1] | VEGFA expression after addition of suppressor (VEGFA in HEK293T cells)
CC(C)C[C@H](NC(=O)[C@H](CCCNC(=N)N)NC(=O)COC1CC/C=C/CCC1)C(=O)N[C@@H](CCCNC(=N)N)C(=O)N[C@@H](Cc1c[nH]c2ccccc12)C(=O)N[C@@H](CCCNC(=N)N)C(=O)O (stereo partly shown) [TCO-CPP-RLRWR] (X1-RLRWR-OH) | strongest fluorescence | good cell permeability | Analogous results | Analogous results | higher VEGFA expression
N=C(N)NCCC[C@H](NC(=O)COC1CC/C=C/CCC1)C(=O)N[C@@H](CCCNC(=N)N)C(=O)N[C@@H](Cc1c[nH]c2ccccc12)C(=O)N[C@@H](CCC(N)=O)C(=O)N[C@@H](Cc1c[nH]c2ccccc12)C(=O)O (stereo partly shown) [TCO-CPP-RRWQW] (X1-RRWQW-OH) | strongest fluorescence | good cell permeability | able to inactivate | able to inactivate | higher VEGFA expression
